Laboratory results published in ChEMBL document CHEMBL1157827, “The synthesis and biological evaluation of quinolyl-piperazinyl piperidines as potent serotonin 5-HT1A antagonists” (J Med Chem, 2010).
Blank lines part the entries; values can stand above or below the compound they belong to.

Legend:
[1] = target: T1, 5-hydroxytryptamine receptor 1A (Homo sapiens, UniProt P08908); assay: biochemical
T1 sequence (P08908 whole entry): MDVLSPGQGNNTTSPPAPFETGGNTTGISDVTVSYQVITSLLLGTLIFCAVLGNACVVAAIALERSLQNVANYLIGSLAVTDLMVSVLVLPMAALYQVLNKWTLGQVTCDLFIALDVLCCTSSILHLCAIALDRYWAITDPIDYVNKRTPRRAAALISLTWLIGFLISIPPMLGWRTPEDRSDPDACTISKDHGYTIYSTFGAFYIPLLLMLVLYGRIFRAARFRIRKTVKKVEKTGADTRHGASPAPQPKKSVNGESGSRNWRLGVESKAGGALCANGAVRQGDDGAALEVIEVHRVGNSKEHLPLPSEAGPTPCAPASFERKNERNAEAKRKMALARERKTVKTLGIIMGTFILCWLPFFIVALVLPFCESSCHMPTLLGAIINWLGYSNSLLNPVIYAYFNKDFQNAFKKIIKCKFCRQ
Description: Displacement of [3H]8-OH-DPAT from human 5HT1A receptor expressed in CHO cells

in vitro [2] = details: human, liver microsomes
Description: Half life in human liver microsomes at 1 uM after 20 mins

in vitro [3] = details: rat, liver microsomes
Description: Half life in rat liver microsomes at 1 uM after 20 mins

[4] = target: T1, 5-hydroxytryptamine receptor 1A
[5] = AUC in Sprague-Dawley rat at 3 mg/kg, po administered as single dose by LC/MS/MS analysis; type: ADME, organism-based, Plasma; set-up: dose 3 mg/kg, route oral; details: Sprague-Dawley, plasma
[6] = Ratio of drug level in brain to plasma in Sprague-Dawley rat at 3 mg/kg, po administered as single dose; type: ADME, organism-based; set-up: dose 3 mg/kg, route oral; details: read-out: BPR
[7] = Tmax in Sprague-Dawley rat at 3 mg/kg, po administered as single dose by LC/MS/MS analysis; type: ADME, organism-based; set-up: dose 3 mg/kg, route oral; details: in vivo
[8] = Cmax in Sprague-Dawley rat at 3 mg/kg, po administered as single dose by LC/MS/MS analysis; type: ADME, organism-based; set-up: dose 3 mg/kg, route oral; details: in vivo
[9] = Volume of distribution at steady state in Sprague-Dawley rat at 1 mg/kg, iv administered as single dose by LC/MS/MS analysis; type: ADME, organism-based; set-up: dose 1 mg/kg, route intravenous; details: in vivo, read-out: Vdss
[10] = Half life in Sprague-Dawley rat at 3 mg/kg, po administered as single dose by LC/MS/MS analysis; type: ADME, organism-based; set-up: dose 3 mg/kg, route oral; details: in vivo
[11] = Oral bioavailability in Sprague-Dawley rat at 3 mg/kg administered as single dose by LC/MS/MS analysis; type: ADME, organism-based; details: Sprague-Dawley, in vivo
[12] = Clearance in Sprague-Dawley rat at 1 mg/kg, iv administered as single dose by LC/MS/MS analysis; type: ADME, organism-based; set-up: dose 1 mg/kg, route intravenous; details: in vivo
Plasma = assay: Drug level in Sprague-Dawley rat plasma at 3 mg/kg, po administered as single dose by LC/MS/MS analysis; type: ADME, organism-based; set-up: dose 3 mg/kg, route oral; details: in vivo

SMILES: COc1cc(N2CCN(C3CCN(c4cccc5ccc(C(F)(F)F)nc45)CC3)CC2)c2ncccc2c1
Ki [1]: 1.8 nM
half-life at 20 min, 1 µM (in vitro [2]): 3 min
half-life at 20 min, 1 µM (in vitro [3]): 2 min
IC50 [4]: 23 nM

SMILES: COc1cc(N2CCN(C3CCN(c4cccc5cc(C(F)(F)F)cnc45)CC3)CC2)c2ncccc2c1
half-life at 20 min, 1 µM (in vitro [2]): 10 min
half-life at 20 min, 1 µM (in vitro [3]): 4 min
IC50 [4]: 30 nM

SMILES: COc1cc(N2CCN(C3CCN(c4cccc5c(OC)cc(C(F)(F)F)nc45)CC3)CC2)c2ncccc2c1
Ki [1]: 2.1 nM
half-life at 20 min, 1 µM (in vitro [2]): 13 min
half-life at 20 min, 1 µM (in vitro [3]): 4 min
IC50 [4]: 30 nM

SMILES: COc1cc(N2CCN(C3CCN(c4cccc5cccnc45)CC3)CC2)c2ncccc2c1
AUC [5]: 360 ng·h/mL
Kp [6]: 2.8
Tmax [7]: 60 min
half-life at 20 min, 1 µM (in vitro [2]): 3 min
Cmax [8]: 130 ng/mL
half-life at 20 min, 1 µM (in vitro [3]): 2 min
Vd [9]: 2.8 L/kg
half-life [10]: 72 min
bioavailability [11]: 27%
clearance [12]: 38.7 mL/min/kg
concentration (Plasma): 200 nM

The next lines start with the values.

Ki [1]: 0.54 nM
half-life at 20 min, 1 µM (in vitro [2]): 3 min
half-life at 20 min, 1 µM (in vitro [3]): < 1 min
IC50 [4]: 47 nM
SMILES: COc1cc(N2CCN(C3CCN(c4cccc5ccc(C)nc45)CC3)CC2)c2ncccc2c1

Ki [1]: 0.61 nM
half-life at 20 min, 1 µM (in vitro [2]): 2 min
half-life at 20 min, 1 µM (in vitro [3]): 2 min
IC50 [4]: 1.4 nM
SMILES: COc1cc(N2CCN(C3CCN(c4cccc5c(C)ccnc45)CC3)CC2)c2ncccc2c1

Ki [1]: 0.46 nM
half-life at 20 min, 1 µM (in vitro [2]): 2 min
half-life at 20 min, 1 µM (in vitro [3]): 2 min
IC50 [4]: 5.9 nM
SMILES: COc1cc(N2CCN(C3CCN(c4cccc5cc(C)cnc45)CC3)CC2)c2ncccc2c1

Ki [1]: 177 nM
half-life at 20 min, 1 µM (in vitro [2]): 3 min
half-life at 20 min, 1 µM (in vitro [3]): 3 min
IC50 [4]: 2.8 nM
SMILES: COc1cc(N2CCN(C3CCN(c4ccc(F)c5c(C)cc(C)nc45)CC3)CC2)c2ncccc2c1

Ki [1]: 0.61 nM
half-life at 20 min, 1 µM (in vitro [2]): 2 min
half-life at 20 min, 1 µM (in vitro [3]): 2 min
IC50 [4]: 10 nM
SMILES: COc1cc(N2CCN(C3CCN(c4cc(Br)cc5cccnc45)CC3)CC2)c2ncccc2c1
